Data published in patent publication US6504058B1 (priority 1997, dated 2003).

How the values were obtained:
Botrytis cinerea = assay: Test E: gray mold, preventive spray on cucumber seedlings, disease rating; assay type: in vivo, Botrytis cinerea (on cucumber seedlings); settings: 200 ppm test suspension sprayed to run-off (equivalent to 500 g/ha) on cucumber seedlings; 100 = 100% disease control, 0 = no control; # = significant activity
In short: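 Cucumber seedlings sprayed to run-off with 200 ppm suspension (equivalent to 500 g/ha), inoculated next day with B. cinerea spores. Kept 48 h saturated at 20 °C, then 5 days in growth chamber at 20 °C; disease control rated 0–100 relative to controls.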

[1] = system: Erysiphe graminis f. sp. tritici; assay: Test A: wheat powdery mildew, preventive spray on wheat seedlings, disease rating; assay type: in vivo, Erysiphe graminis f. sp. tritici (on wheat seedlings); settings: 200 ppm test suspension sprayed to run-off (equivalent to 500 g/ha) on wheat seedlings; 100 = 100% disease control, 0 = no control; # = significant activity
In short: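 Compounds at 200 ppm (acetone 3%, 250 ppm Trem 014 in water; equivalent to 500 g/ha) sprayed to run-off on wheat seedlings, inoculated with spore dust the following day. Plants held at 20° C. for 7 days, then rated 0–100% disease control relative to untreated controls.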

Puccinia recondita = assay: Test B: wheat leaf rust, preventive spray on wheat seedlings, disease rating; assay type: in vivo, Puccinia recondita (on wheat seedlings); settings: 200 ppm test suspension sprayed to run-off (equivalent to 500 g/ha) on wheat seedlings; 100 = 100% disease control, 0 = no control; # = significant activity
In short: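 Wheat seedlings were sprayed to run-off with 200 ppm suspensions (≈500 g/ha; 3% acetone, 250 ppm Trem 014) and inoculated with Puccinia recondita spores the next day. Plants were held 24 h saturated at 20 °C, then 6 days at 20 °C. Disease control was rated 0-100 relative to untreated controls.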

Phytophthora infestans = assay type: in vivo, Phytophthora infestans (on tomato seedlings); settings: 200 ppm test suspension sprayed to run-off (equivalent to 500 g/ha) on tomato seedlings; 100 = 100% disease control, 0 = no control; # = significant activity
Pyricularia oryzae = assay type: in vivo, Pyricularia oryzae (on rice seedlings); settings: 200 ppm test suspension sprayed to run-off (equivalent to 500 g/ha) on rice seedlings; 100 = 100% disease control, 0 = no control; # = significant activity

Compound: CC(NC(=O)C1(C)CC(C)(Br)C1)c1ccc(Br)cc1 (stereo not shown) [compound 18]
- Test E disease control rating (gray mold) (Botrytis cinerea): 0 (a rating of 0 indicates no disease control (relative to the controls))
- Test A disease control rating (wheat powdery mildew) [1]: 0 (a rating of 0 indicates no disease control (relative to the controls))
- Test B disease control rating (wheat leaf rust) (Puccinia recondita): 0 (a rating of 0 indicates no disease control (relative to the controls))
- Test D disease control rating (potato and tomato late blight) (Phytophthora infestans): 0 (a rating of 0 indicates no disease control (relative to the controls))
- Test C disease control rating (rice blast) (Pyricularia oryzae): 99# %

Compound: CC(COc1cc(Cl)ccc1F)NC(=O)C1(C)CC(C)(Br)C1 (stereo not shown) [compound 54]
- Test E disease control rating (gray mold) (Botrytis cinerea): 0 (a rating of 0 indicates no disease control (relative to the controls))
- Test A disease control rating (wheat powdery mildew) [1]: 24%
- Test B disease control rating (wheat leaf rust) (Puccinia recondita): 0 (a rating of 0 indicates no disease control (relative to the controls))
- Test D disease control rating (potato and tomato late blight) (Phytophthora infestans): 0 (a rating of 0 indicates no disease control (relative to the controls))
- Test C disease control rating (rice blast) (Pyricularia oryzae): 97# %

Compound: CC(NC(=O)C1(C)CC(Cl)(CCl)C1)c1ccc2ccccc2c1 (stereo not shown) [compound 63]
- Test E disease control rating (gray mold) (Botrytis cinerea): 0 (a rating of 0 indicates no disease control (relative to the controls))
- Test A disease control rating (wheat powdery mildew) [1]: 0 (a rating of 0 indicates no disease control (relative to the controls))
- Test B disease control rating (wheat leaf rust) (Puccinia recondita): 0 (a rating of 0 indicates no disease control (relative to the controls))
- Test D disease control rating (potato and tomato late blight) (Phytophthora infestans): 37%
- Test C disease control rating (rice blast) (Pyricularia oryzae): 53%

Compound: CC(COc1cc(F)ccc1C#N)NC(=O)C1(C)CC(C)(Cl)C1 (stereo not shown) [compound 44]
- Test E disease control rating (gray mold) (Botrytis cinerea): 84%
- Test A disease control rating (wheat powdery mildew) [1]: 0 (a rating of 0 indicates no disease control (relative to the controls))
- Test B disease control rating (wheat leaf rust) (Puccinia recondita): 0 (a rating of 0 indicates no disease control (relative to the controls))
- Test D disease control rating (potato and tomato late blight) (Phytophthora infestans): 20%
- Test C disease control rating (rice blast) (Pyricularia oryzae): 94# %

Compound: CC(COc1cc(Cl)ccc1F)NC(=O)C1(C)CC(C)(Cl)C1 (stereo not shown) [compound 52]
- Test E disease control rating (gray mold) (Botrytis cinerea): 0 (a rating of 0 indicates no disease control (relative to the controls))
- Test A disease control rating (wheat powdery mildew) [1]: 83# %
- Test B disease control rating (wheat leaf rust) (Puccinia recondita): 0 (a rating of 0 indicates no disease control (relative to the controls))
- Test D disease control rating (potato and tomato late blight) (Phytophthora infestans): 0 (a rating of 0 indicates no disease control (relative to the controls))
- Test C disease control rating (rice blast) (Pyricularia oryzae): 100# (a rating of 100 indicates 100% disease control)

Compound: CC(NC(=O)C1(C)CC(C)(Cl)C1)c1ccc2ccccc2c1 (stereo not shown) [compound 23]
- Test E disease control rating (gray mold) (Botrytis cinerea): 0 (a rating of 0 indicates no disease control (relative to the controls))
- Test A disease control rating (wheat powdery mildew) [1]: 0 (a rating of 0 indicates no disease control (relative to the controls))
- Test B disease control rating (wheat leaf rust) (Puccinia recondita): 0 (a rating of 0 indicates no disease control (relative to the controls))
- Test D disease control rating (potato and tomato late blight) (Phytophthora infestans): 0 (a rating of 0 indicates no disease control (relative to the controls))
- Test C disease control rating (rice blast) (Pyricularia oryzae): 97# %

Compound: CC(NC(=O)C1(C)CC(C)(Br)C1)c1ccc(Cl)cc1Cl (stereo not shown) [compound 68]
- Test E disease control rating (gray mold) (Botrytis cinerea): 0 (a rating of 0 indicates no disease control (relative to the controls))
- Test A disease control rating (wheat powdery mildew) [1]: 0 (a rating of 0 indicates no disease control (relative to the controls))
- Test B disease control rating (wheat leaf rust) (Puccinia recondita): 0 (a rating of 0 indicates no disease control (relative to the controls))
- Test D disease control rating (potato and tomato late blight) (Phytophthora infestans): 24%
- Test C disease control rating (rice blast) (Pyricularia oryzae): 97# %

Compound: COc1cc(Br)ccc1C(C)NC(=O)C1(C)CC(C)(F)C1 (stereo not shown) [compound 70]
- Test E disease control rating (gray mold) (Botrytis cinerea): 19%
- Test A disease control rating (wheat powdery mildew) [1]: 0 (a rating of 0 indicates no disease control (relative to the controls))
- Test B disease control rating (wheat leaf rust) (Puccinia recondita): 0 (a rating of 0 indicates no disease control (relative to the controls))
- Test D disease control rating (potato and tomato late blight) (Phytophthora infestans): 20%
- Test C disease control rating (rice blast) (Pyricularia oryzae): 97# %
